Where two headings read alike, the source gives them in different places.

Test [1] concerns the target T1, rat TRPV1 receptor (rTRPV1) (Rattus norvegicus, UniProt O35433).
T1 construct: rat TRPV1 stably expressed under doxycycline control (Tet-on) in Flp-In T-REx-293 cells (irTRPV1-FlpIn293); homotetramer
In words: Fluo-4 calcium influx assay, FDSS, irTRPV1-FlpIn293 cells. The test is classed as cell-based.

The target in test [2] is T1, rat TRPV1 receptor (rTRPV1). In words: cell-based. The method, then: Purchased capsaicinoid standards, capsiate (both MedChemExpress), vanillin (Honeywell Fluka) and 4-hydroxy-3-methoxybenzyl alcohol (Alfa Aesar) and AMG-517 (TargetMol, Boston, MA, USA) were all dissolved in DMSO to 10 mM as stock solutions. Stably transfected irTRPV1-FlpIn293 cells with Tet-on system (procedure described in Supplementary Methods 1.3) were grown to confluence in Advanced Dulbecco’s Modified Eagle Medium (Adv-DMEM/F12, #12634) supplemented with 10% FBS, 1% Pen Strep, 1% Glutamax (all Gibco, Thermo Fisher Scientific). Forty-eight hours before the experiment, doxycycline (final concentration 1 μg/mL)(Sigma-Aldrich, St.Luid, Mi., USA) and 10 μM ruthenium red (RR; Merck KGaG, Darmstadt, Germany) were added to the media to induce TRPV1 expression. After 24 hours, the cells were washed and detached with 0.5% trypsin–EDTA in PBS (Gibco). Cells resuspended in blocking media (Adv-DMEM/F12 + 10% FBS + 10 μM RR) were counted and then seeded into a 384-well plate (3674, Corning, Corning, NY, USA) in the amount of 3×10^4 per well. Twenty-four hours after seeding, a 2× Fluo-4 direct dye solution (Invitrogen, Thermo Fisher Scientific), dissolved in HHBS buffer, pH ∼ 7.4, was added to well with cells and incubated for 30 minutes at 37°C and then for 40 minutes at room temperature. Once incubated with the dye, the supernatant was removed using BlueWasher (BlueCatbio NH Inc., Lebanon, NH, USA) and changed to an HHBS + 10 μM sulfinpyrazone (Merck KGaG) solution added by Certus (Fritz Gyger AG, Gwatt, Switzerland), followed by 10 minutes of incubation in FDSS μCell (∼ 30°C; Hamamatsu, Hamamatsu city, Japan). A separate compound plate was prepared using an Echo dispenser 650 (Beckman Coulter Inc.,Brea, CA, USA). The final concentration was reached by adding HHBS + 10 μM sulfinpyrazone as above by Certus. The rTRPV1 activity measurement started by recording the baseline (40 s, sample interval 0.339 s). Then the compounds/compound mixture were transferred to the dedicated wells by tips while the recording was running for the next 5 minutes.

The target is the same in test [3]. In words: cell-based. The arrangement: species or system irTRPV1-FlpIn293 (HEK293); Fluo-4 calcium influx, FDSS, TRPV1 activation. As to the method:
Purchased capsaicinoid standards, capsiate (both MedChemExpress), vanillin (Honeywell Fluka) and 4-hydroxy-3-methoxybenzyl alcohol (Alfa Aesar) and AMG-517 (TargetMol, Boston, MA, USA) were all dissolved in DMSO to 10 mM as stock solutions. Stably transfected irTRPV1-FlpIn293 cells with Tet-on system (procedure described in Supplementary Methods 1.3) were grown to confluence in Advanced Dulbecco’s Modified Eagle Medium (Adv-DMEM/F12, #12634) supplemented with 10% FBS, 1% Pen Strep, 1% Glutamax (all Gibco, Thermo Fisher Scientific). Forty-eight hours before the experiment, doxycycline (final concentration 1 μg/mL)(Sigma-Aldrich, St.Luid, Mi., USA) and 10 μM ruthenium red (RR; Merck KGaG, Darmstadt, Germany) were added to the media to induce TRPV1 expression. After 24 hours, the cells were washed and detached with 0.5% trypsin–EDTA in PBS (Gibco). Cells resuspended in blocking media (Adv-DMEM/F12 + 10% FBS + 10 μM RR) were counted and then seeded into a 384-well plate (3674, Corning, Corning, NY, USA) in the amount of 3×10^4 per well. Twenty-four hours after seeding, a 2× Fluo-4 direct dye solution (Invitrogen, Thermo Fisher Scientific), dissolved in HHBS buffer, pH ∼ 7.4, was added to well with cells and incubated for 30 minutes at 37°C and then for 40 minutes at room temperature. […]

Where [4] appears, read: Flp-In-T-REx-293; read-out: Top.

T1 sequence (O35433 whole entry): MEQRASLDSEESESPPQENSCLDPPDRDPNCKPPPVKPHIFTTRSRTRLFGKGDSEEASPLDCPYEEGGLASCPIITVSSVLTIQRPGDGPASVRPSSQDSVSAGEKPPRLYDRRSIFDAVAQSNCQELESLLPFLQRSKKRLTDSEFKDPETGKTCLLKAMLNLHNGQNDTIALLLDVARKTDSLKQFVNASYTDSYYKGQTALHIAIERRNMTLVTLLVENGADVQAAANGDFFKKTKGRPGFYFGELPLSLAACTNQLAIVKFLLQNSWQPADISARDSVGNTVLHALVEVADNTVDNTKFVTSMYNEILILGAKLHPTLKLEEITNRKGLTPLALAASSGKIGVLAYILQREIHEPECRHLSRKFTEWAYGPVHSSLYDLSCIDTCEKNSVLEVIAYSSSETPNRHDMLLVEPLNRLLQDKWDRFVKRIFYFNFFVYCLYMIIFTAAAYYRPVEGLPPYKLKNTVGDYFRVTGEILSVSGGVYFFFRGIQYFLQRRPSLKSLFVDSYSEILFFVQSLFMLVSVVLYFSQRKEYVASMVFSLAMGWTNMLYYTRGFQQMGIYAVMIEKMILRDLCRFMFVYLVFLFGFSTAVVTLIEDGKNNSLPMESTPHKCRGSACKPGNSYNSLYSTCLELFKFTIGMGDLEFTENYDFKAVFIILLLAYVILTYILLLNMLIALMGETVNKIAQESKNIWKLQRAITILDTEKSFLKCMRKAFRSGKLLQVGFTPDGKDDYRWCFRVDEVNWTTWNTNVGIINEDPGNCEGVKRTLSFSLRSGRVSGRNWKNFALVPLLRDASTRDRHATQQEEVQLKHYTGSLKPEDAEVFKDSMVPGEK

In the case of `COc1cc(CNC(=O)CCCC/C=C/C(C)C)ccc1O[C@@H]1O[C@H](CO)[C@@H](O)[C@H](O)[C@H]1O` [compound 24, Capsaicin β-D-glucopyranoside], the EC50 in test [1] (read-out: EC50) was determined as 4690 nM. The Emax in test [2] (setting [4]) turned out to be 102%.
Take `COc1cc(CNC(=O)CCCCCCCC(C)O)ccc1O` (stereo not drawn) [compound 33, N-vanillyl-9-hydroxydecanamide]: the EC50 in test [1] (read-out: EC50) amounted to 6330 nM. In test [2] (setting [4]), the Emax was determined as 96.5%.
Turning to `COc1cc(CNC(=O)CCCCC(C)C)ccc1O` [compound 27, Nornordihydrocapsaicin], the EC50 in test [1] (read-out: EC50) was found to be 1040 nM. The Emax in test [2] (setting [4]) is 94.8%.
The like results for `CCCCCCCC/C=C\CCCCCCCC(=O)NCc1ccc(O)c(OC)c1` [compound 20, Olvanil] were, in that order, 120 nM and 40.4%.
`COc1cc(CNC(=O)CCCC/C=C/C(C)C)cc(-c2cc(CNC(=O)CCCCCCC(C)C)cc(OC)c2O)c1O` [compound 23, 6″,7″-Dihydro-5′,5‴-dicapsaicin]: the EC50 in test [1] (agonist, HHBS pH ~7.4, ~30 °C, unreliable (sample 79.94% pure, trace monomers may inflate the potency), read-out: EC50) was found to be 10270 nM; in test [2] it was 10300 nM. The Emax in test [2] (setting [4]) was found to be 90.7%.
For the compound `COc1cc(CNC(=O)CC(C)C)ccc1O` [compound 30, N-isovalerylvanillylamin], the EC50 in test [1] (read-out: EC50) came out at 2840 nM. Also, the Emax in test [2] (setting [4]) turned out to be 80%.
On to `CCCCCCCCC(=O)NCc1ccc(O)c(OC)c1` [compound 17, Nonivamide], for which the Emax in test [2] (Flp-In-T-REx-293, read-out: Top) turned out to be 105%.
Turning to `COc1cc(CNC(=O)CCCCC2OC2C(C)C)ccc1O` (stereo not drawn) [compound 32, Epicapsaicin], the results for the EC50 in test [1] (read-out: EC50) and in test [2] were 600 nM and 1110 nM, respectively. Moreover, the Emax in test [2] (setting [4]) is 110%.
Consider `COc1cc(CNC(=O)CCCCCC(O)C(C)C)ccc1O` (stereo not drawn) [compound 34, N-vanillyl-7-hydroxy-8-methylnonamide], for which the EC50 in test [1] (read-out: EC50) stood at 1460 nM. For the same compound, the Emax in test [2] (setting [4]) amounted to 90.6%.
`COc1cc(CNC(=O)C=CC=CC(C)C)ccc1O` [compound 35, N-vanillyl 6-Methyl-2,4-heptadienamide]: the EC50 in test [1] (read-out: EC50) was 1200 nM. In test [2] (setting [4]), the Emax was 77.8%.
Consider `COc1cc(CNC(=O)CCCCCCCC(C)C)ccc1O` [compound 4, Homodihydrocapsaicin I], for which the EC50 in test [1] (read-out: EC50) is 320 nM.
On to `CCCCCCC(=O)NCc1ccc(O)c(OC)c1` [compound 26, N-Heptanoate vanillylamide], for which, in test [1] (read-out: EC50), the EC50 stood at 1810 nM. Moreover, in test [2] (setting [4]), the Emax turned out to be 114%.
For the compound `COc1cc(CNC(=O)CC/C=C/C=C/C(C)C)ccc1O` [compound 16, N-vanillyl-4E,6E-dien-8-methylnonanamide], in test [1] (read-out: EC50), the EC50 is 140 nM. Besides, in test [2] (setting [4]), the Emax was 94.3%.
As to `COc1cc(CNC(=O)CCCCCCC(C)C)ccc1O` [compound 2, Dihydrocapsaicin], the EC50 in test [1] (read-out: EC50) was 50 nM.
With `COc1cc(CNC(=O)CC/C=C/C(C)C)ccc1O` [compound 10, Nornorcapsaicin], the EC50 in test [1] (read-out: EC50) turned out to be 810 nM. In addition, in test [2] (setting [4]), the Emax came to 77.8%.
As to `COc1cc(CNC(=O)CCCCCC(=O)C(C)C)ccc1O` [compound 31, N-(4-Hydroxy-3-methoxybenzyl)-8-methyl-7-oxononanamide], the EC50 in test [1] (read-out: EC50) was found to be 560 nM; in test [2] it was 602 nM. For the same compound, in test [2] (setting [4]), the Emax came to 84.2%.
For `CCCCCCCCCC(=O)NCc1ccc(O)c(OC)c1` [compound 14, N-Vanillyldecanamide], in test [1] (read-out: EC50), the EC50 is 200 nM. Besides, the Emax in test [2] (setting [4]) worked out at 114%.
Consider `COc1cc(CNC(=O)CCCC/C=C/C(C)C)cc(-c2cc(CNC(=O)CCCC/C=C/C(C)C)cc(OC)c2O)c1O` [compound 38, 5,5’-dicapsaicin], for which, in test [1] (agonist, HHBS pH ~7.4, ~30 °C, unreliable (trace monomers may inflate the potency)), the EC50 is recorded as 4.46E-06 (95% CI 3.848e-006 to 5.265e-006) M. The Emax in test [2] (setting [4]) turned out to be 83.3%.
With `COc1cc(CNC(=O)CCCCCC(C)C)ccc1O` [compound 11, Nordihydrocapsaicin], the EC50 in test [2] came out at 53.4 nM.
As to `CCCCCCCC(=O)NCc1ccc(O)c(OC)c1` [compound 13, N-vanillyl octanamide], the EC50 in test [1] (read-out: EC50) is 150 nM. For the same compound, in test [2] (setting [4]), the Emax came out at 93.7%.
For the compound `COc1cc(COC(=O)CCCC/C=C/C(C)C)ccc1O` [compound 39, capsiate], the EC50 in test [3] is 491000 nM.
`COc1cc(CNC(=O)CCCC/C=C/C(C)CO)ccc1O` (stereo not drawn) [compound 22, ω-Hydroxycapsaicin]: in test [1] (read-out: EC50), the EC50 turned out to be 5560 nM. Also, the Emax in test [2] (setting [4]) amounted to 90%.

The values above are taken from article doi:10.1101/2024.10.29.620944v2, “Discovery and isolation of novel capsaicinoids and their TRPV1-related activity” (biorxiv, 2025).
